According to the NIST ThermoML archive (doi:10.1016/j.tca.2016.11.017):
Numbers after ± are expanded uncertainties.

Columns and labels:
[1] = Molar enthalpy of transition or fusion; conditions: DSC
[2] = for Normal melting temperature: DTA; for mass density: 103 K, 101.33 kPa, X-ray diffraction

Molar enthalpy of transition or fusion ([1]; Crystal) [kcal/mol] | Normal melting temperature ([2]; Crystal) [°C] | Molar enthalpy of transition or fusion ([1]; Crystal 1) [kcal/mol] | Molar enthalpy of transition or fusion ([1]; Crystal 2) [kcal/mol] | mass density ([2]; Crystal) [kg/m3] | Normal melting temperature ([2]; Crystal 1) [°C] | Normal melting temperature ([2]; Crystal 2) [°C] | SMILES
10.9 ± 2.2 | 187.40 ± 0.5 |  |  |  |  |  | CO[C@H](C(=O)[O-])c1ccccc1.C[C@@H]([NH3+])C1CCCCC1
 |  | 7.31 ± 1.48 | 9.16 ± 1.84 | 1149 ± 6 | 162.90 ± 0.5 | 166.30 ± 0.5 | CO[C@H](C(=O)[O-])c1ccccc1.C[C@H]([NH3+])C1CCCCC1
6 ± 1.2 | 70.60 ± 0.5 |  |  |  |  |  | COC(C(=O)O)c1ccccc1 (configuration not stated) [2-methoxy-2-phenylacetic acid]
4.51 ± 0.908 | 69.30 ± 0.5 |  |  | 1311 ± 7 |  |  | CO[C@H](C(=O)O)c1ccccc1 [(S)-2-methoxy-2-phenylacetic acid]
